# Measured values as given in PubChem BioAssay (NCI).
#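 Where inhibition never reached the appropriate level, the endpoint shown equals the highest concentration tested. Otherwise, values were interpolated linearly from a five-concentration, 48-hour dose response in 96-well plates. Here, GI50 denotes the concentration required for 50% inhibition of growth. TGI is the concentration that stops growth completely.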
# What was measured:
# Experiment in all cases: DTP human tumour cell line panel, 48 h
# [1] = tested on: COLO 205 colon
# [2] = tested on: SF-295 CNS
# [3] = tested on: IGROV1 ovarian
# [4] = tested on: RXF 393 renal
# [5] = tested on: HCT-15 colon
# [6] = tested on: CCRF-CEM leukemia
# [7] = tested on: SK-OV-3 ovarian
# [8] = tested on: A549 NSCLC
# [9] = tested on: HCC-2998 colon
# [10] = tested on: U251 CNS
# [11] = tested on: HT29 colon
# [12] = tested on: RPMI-8226 leukemia
# [13] = tested on: SW-620 colon
# [14] = tested on: PC-3 prostate
# [15] = tested on: CAKI-1 renal
# [16] = tested on: OVCAR-4 ovarian
# [17] = tested on: SN12C renal
# [18] = tested on: SK-MEL-28 melanoma
# [19] = tested on: ACHN renal
# [20] = tested on: HL-60(TB) leukemia
# [21] = tested on: MALME-3M melanoma
# [22] = tested on: UACC-257 melanoma
# [23] = tested on: HOP-62 NSCLC
# [24] = tested on: KM12 colon
# [25] = tested on: BT-549 breast
# [26] = tested on: DU-145 prostate
# [27] = tested on: 786-0 renal
# [28] = tested on: MDA-MB-435
# [29] = tested on: SF-268 CNS
# [30] = tested on: M14 melanoma
# [31] = tested on: SNB-19 CNS
# [32] = tested on: UO-31 renal
# [33] = tested on: K-562 leukemia
# [34] = tested on: UACC-62 melanoma
# [35] = tested on: HOP-92 NSCLC
# [36] = tested on: OVCAR-8 ovarian
# [37] = tested on: HS 578T breast
# [38] = tested on: NCI-H226 lung
# [39] = tested on: A498 renal
# [40] = tested on: NCI-H23 lung
# [41] = tested on: LOX IMVI melanoma
# [42] = tested on: SK-MEL-5 melanoma
# [43] = tested on: MCF7 breast
# [44] = tested on: NCI-H522 lung
# [45] = tested on: T-47D breast
# [46] = tested on: MDA-MB-231 breast
# [47] = tested on: NCI-H460 lung
# [48] = tested on: EKVX NSCLC
# [49] = tested on: HCT-116 colon
# [50] = tested on: SF-539 CNS
# [51] = tested on: TK-10 renal
# [52] = tested on: MOLT-4 leukemia
# [53] = tested on: SR leukemia
# [54] = tested on: OVCAR-3 ovarian
# [55] = tested on: NCI/ADR-RES ovarian
# [56] = tested on: SK-MEL-2 melanoma
# [57] = tested on: SNB-75 CNS
# [58] = tested on: OVCAR-5 ovarian
smiles,measurement,setting,value
Cc1nc(C)c(N2CCN(S(N)(=O)=O)CC2)c(=O)[nH]1,TGI,[1],> 100 µM
same,TGI,[2],> 100 µM
same,TGI,[3],> 100 µM
same,TGI,[4],> 100 µM
same,TGI,[5],> 100 µM
same,TGI,[6],> 100 µM
same,TGI,[7],> 100 µM
same,TGI,[8],> 100 µM
same,TGI,[9],> 100 µM
same,TGI,[10],> 100 µM
same,TGI,[11],> 100 µM
same,TGI,[12],> 100 µM
same,TGI,[13],> 100 µM
same,TGI,[14],> 100 µM
same,TGI,[15],> 100 µM
same,TGI,[16],> 100 µM
same,TGI,[17],> 100 µM
same,TGI,[18],> 100 µM
same,TGI,[19],> 100 µM
same,TGI,[20],> 100 µM
same,TGI,[21],> 100 µM
same,TGI,[22],> 100 µM
same,TGI,[23],> 100 µM
same,TGI,[24],> 100 µM
same,TGI,[25],> 100 µM
same,TGI,[26],> 100 µM
same,TGI,[27],> 100 µM
same,TGI,[28],> 100 µM
same,TGI,[29],> 100 µM
same,TGI,[30],> 100 µM
same,TGI,[31],> 100 µM
same,TGI,[32],> 100 µM
same,TGI,[33],> 100 µM
same,TGI,[34],> 100 µM
same,TGI,[35],> 100 µM
same,TGI,[36],> 100 µM
same,TGI,[37],> 100 µM
same,TGI,[38],> 100 µM
same,TGI,[39],> 100 µM
same,TGI,[40],> 100 µM
same,TGI,[41],> 100 µM
same,TGI,[42],> 100 µM
same,TGI,[43],> 100 µM
same,TGI,[44],> 100 µM
same,TGI,[45],> 100 µM
same,TGI,[46],> 100 µM
same,TGI,[47],> 100 µM
same,TGI,[48],> 100 µM
same,TGI,[49],> 100 µM
same,TGI,[50],> 100 µM
same,TGI,[51],> 100 µM
same,TGI,[52],> 100 µM
same,TGI,[53],> 100 µM
same,TGI,[54],> 100 µM
same,TGI,[55],> 100 µM
Fc1ccc(-c2ncn(CCCN3CCOCC3)c2-c2ccncc2)cc1,GI50,[1],> 25 µM
same,TGI,[1],> 25 µM
same,GI50,[2],> 25 µM
same,TGI,[2],> 25 µM
same,GI50,[3],> 25 µM
same,TGI,[3],> 25 µM
same,GI50,[4],> 25 µM
same,TGI,[4],> 25 µM
same,GI50,[5],> 25 µM
same,TGI,[5],> 25 µM
same,GI50,[56],> 25 µM
same,TGI,[56],> 25 µM
same,GI50,[6],> 25 µM
same,TGI,[6],> 25 µM
same,GI50,[7],> 25 µM
same,TGI,[7],> 25 µM
same,GI50,[8],> 25 µM
same,TGI,[8],> 25 µM
same,GI50,[9],> 25 µM
same,TGI,[9],> 25 µM
same,GI50,[10],> 25 µM
same,TGI,[10],> 25 µM
same,GI50,[11],> 25 µM
same,TGI,[11],> 25 µM
same,GI50,[12],> 25 µM
same,TGI,[12],> 25 µM
same,GI50,[13],> 25 µM
same,TGI,[13],> 25 µM
same,GI50,[14],> 25 µM
same,TGI,[14],> 25 µM
same,GI50,[15],> 25 µM
same,TGI,[15],> 25 µM
same,GI50,[16],> 25 µM
same,TGI,[16],> 25 µM
same,GI50,[17],> 25 µM
same,TGI,[17],> 25 µM
same,GI50,[18],> 25 µM
same,TGI,[18],> 25 µM
same,GI50,[19],> 25 µM
same,TGI,[19],> 25 µM
same,GI50,[20],> 25 µM
same,TGI,[20],> 25 µM
same,GI50,[21],> 25 µM
same,TGI,[21],> 25 µM
same,GI50,[57],> 25 µM
same,TGI,[57],> 25 µM
same,GI50,[22],> 25 µM
same,TGI,[22],> 25 µM
same,GI50,[23],> 25 µM
same,TGI,[23],> 25 µM
same,GI50,[24],> 25 µM
same,TGI,[24],> 25 µM
same,GI50,[25],> 25 µM
same,TGI,[25],> 25 µM
same,GI50,[26],> 25 µM
same,TGI,[26],> 25 µM
same,GI50,[27],> 25 µM
same,TGI,[27],> 25 µM
same,GI50,[28],> 25 µM
same,TGI,[28],> 25 µM
same,GI50,[29],> 25 µM
same,TGI,[29],> 25 µM
same,GI50,[30],> 25 µM
same,TGI,[30],> 25 µM
same,GI50,[31],> 25 µM
same,TGI,[31],> 25 µM
same,GI50,[32],> 25 µM
same,TGI,[32],> 25 µM
same,GI50,[33],> 25 µM
same,TGI,[33],> 25 µM
same,GI50,[34],> 25 µM
same,TGI,[34],> 25 µM
same,GI50,[35],> 25 µM
same,TGI,[35],> 25 µM
same,GI50,[36],> 25 µM
same,TGI,[36],> 25 µM
same,GI50,[37],> 25 µM
same,TGI,[37],> 25 µM
same,GI50,[38],> 25 µM
same,TGI,[38],> 25 µM
same,GI50,[39],> 25 µM
same,TGI,[39],> 25 µM
same,GI50,[40],> 25 µM
same,TGI,[40],> 25 µM
same,GI50,[41],> 25 µM
same,TGI,[41],> 25 µM
same,GI50,[42],> 25 µM
same,TGI,[42],> 25 µM
same,GI50,[43],> 25 µM
same,TGI,[43],> 25 µM
same,GI50,[44],> 25 µM
same,TGI,[44],> 25 µM
same,GI50,[45],> 25 µM
same,TGI,[45],> 25 µM
same,GI50,[58],> 25 µM
same,TGI,[58],> 25 µM
same,GI50,[46],> 25 µM
same,TGI,[46],> 25 µM
same,GI50,[47],> 25 µM
same,TGI,[47],> 25 µM
same,GI50,[48],> 25 µM
same,TGI,[48],> 25 µM
same,GI50,[49],> 25 µM
same,TGI,[49],> 25 µM
same,GI50,[50],> 25 µM
same,TGI,[50],> 25 µM
same,GI50,[51],> 25 µM
same,TGI,[51],> 25 µM
same,GI50,[52],> 25 µM
same,TGI,[52],> 25 µM
same,GI50,[53],> 25 µM
same,TGI,[53],> 25 µM
same,GI50,[54],> 25 µM
same,TGI,[54],> 25 µM
same,GI50,[55],> 25 µM
same,TGI,[55],> 25 µM
